Paper PMC11582634, “Discovering the inhibition of YAP/TEAD Hippo signaling pathway via new pyrazolone derivatives: synthesis, molecular docking and biological investigations” (Scientific Reports, 2024)

Tests used:
[1] = DPPH free radical scavenging (antioxidant) assay; settings: in-vitro
Procedure: The synthesized pyrazolone derivatives’ capacity to scavenge free radicals DPPH was assessed using a modified Zheleva-Dimitrova technique. Also, the DPPH radical was investigated to L-ascorbic acid with concentrations (10–100 μM) that serving as the standard positive control and the scavenging percent was calculated by Eq. 1.1 [drawing 1]

[2] = tested on: HCT-116, HepG2, and MCF-7; experiment: MTT assay, whole panel of cancer cell lines (result in words); format: cell-based, human; settings: 48 h, compared with Sorafenib
From the text: (§1) Mammary gland (MCF-7;# ATCC HTB-22), colorectal adenocarcinoma (HCT-116; # ATCC CCL-247)), hepatocellular carcinoma (HepG-2; #ATCC HB-8065), and human lung fibroblast (WI-38; # ATCC CCL-75). The ATCC cell line was obtained via the Holding Company for Biological Products and Vaccines (VACSERA), Cairo, Egypt.
(§2) The MTT test was utilized to ascertain the pyrazolone derivatives’ inhibitory effects on cell growth using the aforementioned cell lines. This colorimetric assay is based on the transformation of yellow tetrazolium bromide (MTT) by mitochondrial succinate dehydrogenase in living cells into a purple formazan derivative. The RPMI-1640 medium was supplemented with 10% fetal bovine serum to cultivate cell lines. At 37° C in an incubator with 5% CO2, 100 units/mL of penicillin and 100 µg/mL of streptomycin were introduced as antibiotics. The cell lines were seeded by 1.0 × 10^4 cells/well in a 96-well plate and kept at 37 °C for 24 h with 5% CO2. Following incubation, the cells were subjected to several concentrations of newly synthesized pyrazolone derivatives and left for 48 h incubation.20 µL of a 5 mg/mL MTT solution was added and incubated for 4 h after the drug treatment. To dissolve the purple formazan produced in each well, 100 µL of dimethyl sulfoxide (DMSO) was applied. The colorimetric test is performed at 630 nm absorbance and recorded using a plate reader (EXL 800, USA)[32].
(§3) GraphPad Prism 6 (San Diego, CA) (GraphPad Prism 6, https://www.graphpad.com/scientific-software/prism/) was used to calculate the IC50 values and the data was expressed as mean ± SE.

[3] = MTT assay, WI-38 normal human lung fibroblast cells; format: cell-based; settings: human, WI-38 normal lung fibroblast cells
From the text: as §1
as §2, with “Following incubation, the cells were subjected to several concentrations of newly synthesized pyrazolone derivatives and left for 48 h incubation.20 µL of a 5 mg/mL MTT solution was added and incubated for 4 h after the drug treatment. To dissolve the purple formazan produced in each well, 100 µL of dimethyl sulfoxide (DMSO) was applied.” left out
as §3

HCT-116 = experiment: MTT assay, HCT-116 colorectal adenocarcinoma cells; format: cell-based; settings: Homo sapiens, 48 h, mean ± SE, read-out: IC50 against HCT-116
HepG-2 = experiment: MTT assay, HepG-2 hepatocellular carcinoma cells; format: cell-based; settings: Homo sapiens, HepG2, 48 h, mean ± SE, read-out: IC50 against HepG-2
MCF-7 = experiment: MTT assay, MCF-7 mammary gland cells; format: cell-based; settings: Homo sapiens, MCF7, 48 h, mean ± SE, read-out: IC50 against MCF-7
WI-38 = experiment: MTT assay, WI-38 normal human lung fibroblast cells; format: cell-based; settings: 48 h, compared with SOR
From the text: as §1
as §2, with “Following incubation, the cells were subjected to several concentrations of newly synthesized pyrazolone derivatives and left for 48 h incubation.20 µL of a 5 mg/mL MTT solution was added and incubated for 4 h after the drug treatment. To dissolve the purple formazan produced in each well, 100 µL of dimethyl sulfoxide (DMSO) was applied.” left out
as §3

Compound | IC50 [1] [µM] | Impact on all panels of cancer cell lines (in words) [2] | melting point [°C] | IC50 at 48 h [3] [µM] | IC50 (HCT-116) [µM] | IC50 (HepG-2) [µM] | IC50 (MCF-7) [µM] | Cytotoxic effect on WI-38 normal cells (in words) (WI-38)
CN(C)c1ccc(-c2cc(-c3ccc(N=NC4C(=O)N(c5ccccc5)N=C4N)cc3)nc(=S)[nH]2)cc1 (stereo not drawn) [Compound 8, 3-amino-4-((4-(6-(4-(dimethylamino)phenyl)-2-thioxo-1,2-dihydropyrimidin-4-yl)phenyl)diazenyl)-1-phenyl-1H-pyrazol-5(4H)-one] | 65.54 ± 0.32 | moderate to weak impact | 103 | – | – | – | – | –
CNC(=O)c1cc(Oc2ccc(NC(=O)Nc3ccc(Cl)c(C(F)(F)F)c3)cc2)ccn1 [Sorafenib, reference compound] | – | – | – | 20.3 ± 0.45 | – | – | – | –
CC(=O)N1N=C(c2ccc(N=NC3C(=O)N(c4ccccc4)N=C3N)cc2)CC1c1ccc(N(C)C)cc1 (stereo not drawn) [Compound 6, 4-((4-(1-acetyl-5-(4-(dimethylamino)phenyl)-4,5-dihydro-1H-pyrazole-3-yl)phenyl)diazenyl)-3-amino-1-phenyl-1H-pyrazole-5(4H)-one] | 32.4 ± 0.2 | – | 74 | – | 16.5 ± 1.3 | 25.6 ± 1.7 | 19.8 ± 1.5 | –
CN(C)c1ccc(-c2cc(-c3ccc(/N=N/C4C(=O)N(c5ccccc5)N=C4N)cc3)nc(N)c2C#N)cc1 (stereo not drawn) [Compound 10, (E)-2-amino-6-(4-((3-amino-5-oxo-1-phenyl-4,5-dihydro-1H-pyrazole-4-yl)diazenyl)phenyl)-4-(4-(dimethylamino)phenyl)nicotinonitrile] | 74.3 ± 0.38 | moderate to weak impact | 116 | – | – | – | – | –
CN(C)c1ccc(-c2cc(-c3ccc(/N=N/C4C(=O)N(c5ccccc5)N=C4N)cc3)[nH]c(=O)c2C#N)cc1 (stereo not drawn) [Compound 11, (E)-6-(4-((3-amino-5-oxo-1-phenyl-4,5-dihydro-1H-pyrazol-4-yl)diazenyl)phenyl)-4-(4-(dimethylamino)phenyl)-2-oxo-1,2-dihydropyridine-3-carbonitrile] | 53.67 ± 0.29 | moderate to weak impact | 92 | – | – | – | – | –
3-amino-4-((4-(6-(4-(dimethylamino)phenyl)-2-oxo-1,2-dihydropyridine-4-yl)phenyl)diazenyl)-1-phenyl-1H-pyrazole-5(4H)-one [Compound 7] | 93.7 ± 0.47 | moderate to weak impact | – | – | – | – | – | –
CN(C)c1ccc(C2C=C(c3ccc(/N=N/C4C(=O)N(c5ccccc5)N=C4N)cc3)OC(N)=C2C#N)cc1 (stereo not drawn) [Compound 9, (E)-2-amino-6-(4-((3-amino-5-oxo-1-phenyl-4,5-dihydro-1H-pyrazole-4-yl)diazenyl)phenyl)-4-(4-(dimethylamino)phenyl)-4H-pyran-3-carbonitrile] | 47.07 ± 0.24 | moderate to weak impact | 139 | – | – | – | – | –
O=C1O[C@H]([C@@H](O)CO)C(O)=C1O [L-ascorbic acid, reference compound] | 16.81 ± 0.1 | – | – | – | – | – | – | –
CN(C)c1ccc(C2CC(c3ccc(N=NC4C(=O)N(c5ccccc5)N=C4N)cc3)=NN2c2ccccc2)cc1 (stereo not drawn) [Compound 4, 3-amino-4-((4-(5-(4-(dimethylamino)phenyl)-1-phenyl-4,5-dihydro-1H-pyrazole-3-yl)phenyl)diazenyl)-1-phenyl-1H-pyrazole-5(4H)-one] | 19.88 ± 0.15 | – | 96 | – | 7.67 ± 0.5 | 5.85 ± 0.4 | 6.97 ± 0.5 | no cytotoxic effects
